The record followed here is patent US20250304576A1 (Cancer Research Technology Limited, priority 2022, published 2025).

The test system of one test is PC3M cells. The test is described as follows: Cell viability, alamarBlue assay, PC3M cells. The note with it: treatment for 48 hours. The format is cell-based. The protocol:
(§1) PC3, PC3M, LNCaP Al, cells were grown in RPMI 1640 media and PANC1 and MiaPac-2 cells were grown in Dulbecco's Modified Eagle's Media (DMEM) which was supplemented with 10% (v/v) Foetal Calf Serum (FCS) (Charcoal-stripped for LNCaP Als), L-glutamine ([…]) and penicillin/streptomycin (250 units/ml; 100 μg/ml). All cells were incubated in a humidified atmosphere at 37° C. and 5% (v/v) CO2. Cells were cultured as a monolayer in 10 ml media in […] vented flasks and grown until subculture was required.
(§2) Cell viability determination: Cells (1000 cells/100 μl) were plated into 96 well plates and incubated for 24 hours at 37° C. and 5% (v/v) CO2 before being treated with SU1433. After incubation with SU1433 for 48 h, cell viability was measured using the alamarBlue® Assay (Thermofisher, UK). The media was removed and replaced with a 1:10 media to alamar blue solution. After a 1 h incubation at 37° C. and 5% CO2, the fluorescence was measured at 530-560 nm excitation wavelength and 590 nm emission wavelength in a fluorescence plate reader. All treatment were measured in duplicate wells and repeated at least 3 times. The results represent the fractional survival of untreated controls±SD.

A further test relates to LNCaP cells. The test is described as follows: Cell viability, alamarBlue assay, LNCaP cells. It counts as cell-based. The note with it: treatment for 48 hours. The protocol: as §1, §2
(In general: Alamar Blue is a resazurin reagent that responds to reducing activity.)

The subject of another test is PANC1 cells. As to the kind of experiment: Cell viability, alamarBlue assay, PANC1 cells. It counts as cell-based. The note with it: treatment for 48 hours. The procedure:
as §1, §2

The test system of the next test is MiaPaca-2 cells. As to the kind of experiment: Cell viability, alamarBlue assay, MiaPaca-2 cells. The format is cell-based. The settings on record: treatment for 48 hours. The procedure:
as §1, §2

For another test, the system named is PC3M xenografts. The test is described as follows: In vivo assessment in nude mice bearing PC3M xenografts. The note with it: once daily i.p. dose of 50 mg/kg, over 21 days. The procedure:
Xenografts were established in nude mice by subcutaneous injection of 5×10^6 PC3M-Luc-C6 cells. After 8 days, mice bearing tumours of approximately 60 mm^3 in volume were randomised into 3 treatment groups of 8 mice in each. One group of mice received intraperitoneal injection (i.p.) of 50 mg/kg SU1433 once daily dissolved in a vehicle of 5% (v/v) DMSO, 5% (v/v) solutol HS15 and 15% (w/v) hydroxypropyl-p-cyclodextrin in water for injection (90%) for a total of 21 days. Another group received once daily i.p. injection of the vehicle (100 μL) alone whilst the last group received no treatment. To monitor potential toxicity, body weight was measured daily, and experimental animals were evaluated for signs of distress using standard guidelines. Mice whose xenografts reached 1,900 mm^3 were euthanised. Subcutaneous tumours were measured with calipers immediately before treatment and every 2 or 3 days thereafter. On the assumption of ellipsoidal geometry, diameter measurements were converted to an approximate volume by multiplying half the longest diameter by the square of the mean of the 2 shorter diameters. For every animal, relative tumour volume (volume at any time point divided by volume immediately before treatment) was plotted against time, and the area under the time-volume curves was determined by trapezoidal approximation. […]

The structures appear in SMILES notation.

`CC(C)(C)C#Cc1cc(-c2ccnc(N)c2)cc2c(N)n[nH]c12` [Example 137, 5-(2-Aminopyridin-4-yl)-7-(3,3-dimethylbut-1-yn-1-yl)-1H-indazol-3-amine]: the “viability of PC3M cells” value with PC3M cells is “reduced the viability”. Further, in the test with LNCaP cells, the “viability of LNCaP cells” value is recorded as “reduced the viability”. In addition, in the test with PANC1 cells, the “viability of PANC1 cells” value is given as “reduced the viability”. For the same molecule, in the test on MiaPaca-2 cells, the “viability of MiaPaca-2 cells” value was “reduced the viability”. The “inhibition of tumour growth” value in the test with PC3M xenografts is reported as “approximately 60%”.
